From ChEMBL document CHEMBL1124124, “Synthesis and interaction with uridine phosphorylase of 5'-deoxy-4',5-difluorouridine, a new prodrug of 5-fluorouracil” (J Med Chem, 1988) come the findings set out here.

This assay concerns Uridine phosphorylase (Mus musculus). Kind of assay: Relative Vmax for interaction with Urd phosphorylase.

For `C[C@@]1(F)OC(n2cc(F)c(=O)[nH]c2=O)[C@H](O)[C@@H]1O` (stereo partly specified), the Relative Vmax is 5.
